Data from patent US8912184B1, “Therapeutic and diagnostic methods” (Alzheimer's Institute of America, Inc., priority 2010, dated 2014).
Read-outs that look alike come from different tables or passages of the source.

What was measured:
HCT116 xenograft tumors = experiment: HCT116 human colon carcinoma murine xenograft, tumor growth/regression; type: in vivo, nu/nu mice
Procedure: Exemplary Compound A was tested for its ability to deplete NAD levels and promote tumor regression in an HCT116 (i.e., a Naprt-proficient cancer) murine xenograft model. Three million HCT116 human colon carcinoma cells were injected subcutaneously into nu/nu mice to form tumors. Dosing was started ten days later when median tumor volume was >100 mm^3.
Exemplary Compound A was administered orally to HCT116 tumor-bearing xenograft mice once (arrow) at the maximum tolerated dose of 75 mg/kg with or without simultaneous delivery of NA by Alzet pump (470 mg/kg/day for three days) (FIG. 8(b)).
(§1) The effect of weekly administration of Exemplary Compound A on tumor growth was examined in murine HCT116 xenograft models (FIG. 8(c)). HCT116 tumor-bearing xenograft mice were orally dosed with 75 mg/kg Exemplary Compound A weekly for three cycles (arrows), resulting in a maximal tumor response of 10% regression on day 18.
as §1, with “daily” for “weekly”, “8(d)).” for “8(c)).”, “10” for “75”, “21 days (black bar),” for “three cycles (arrows),”, “32%” for “10%”, “11.” for “18.”

[1] = Standard Cytotoxicity Assay for other cancer cell types (TC50, CellTiter-Glo); type: cell-based; details: for CC50 at 3 day: read-out: Cmpd A 3 day TC50; for CC50 at 7 day: read-out: Cmpd A 7 day TC50
Procedure: Approximately 24 hours later, test compound was added from serial dilutions prepared in DMSO from DMSO stock solutions.

HCT116 cells = experiment: 72 Hour HCT116 Cytotoxicity Assay (CellTiter-Glo); type: cell-based; details: Homo sapiens, HCT-116, 72 h, HCT116 cells, 72 h, read-out: IC50 cytotoxicity
Procedure: HCT116 cells were seeded in 96 well plates (Greiner Bio-One, Monroe, N.C.) and allowed to settle overnight. Test compound dissolved in dimethyl sulfoxide (DMSO) was added and drug incubation proceeded for 72 hours. […] After 72 hour, 50 μL of CellTiter-Glo Luminescent Cell Viability Assay reagent (Promega Corporation, Madison, Wis.) was added to cells in 200 μL of cellular media. After a proscribed incubation period, luminescence was measured using a TopCount NXT plate reader (PerkinElmer, Waltham, Mass.).

cell lines = experiment: NA rescue phenotype of cell lines treated with Nampt inhibitor (Nicotinic Acid Rescue Cytotoxicity Assays); type: cell-based
Procedure: Cell lines were treated with a fixed dose of Exemplary Compound A and screened for NA rescue and Naprt1 expression by immunoblotting and qRT-PCR (Table 3). […] The 176 cell lines included 5 normal (non-cancerous) cell lines and 3 primary cell lines (italicized in the table), all of which rescued. Naprt1 was quantified by western blotting and qRT-PCR in 164 and 123 of the 176 cell lines, respectively. […] A statistically significant (p value <0.0001) correlation existed between a NA rescue phenotype and Naprt1 protein or mRNA expression levels.
Additionally, Nicotinic Acid (NA) rescue of cytotoxicity of Nampt inhibitors was assessed by two distinct methods. In the first method, Nampt1 inhibitor cytotoxicity was evaluated in the presence and absence of exogenous nicotinic acid (NA) at a fixed concentration. […] Twenty four hours after cells were plated, the media was removed and replaced with media containing 10 μM nicotinic acid. Compounds were then immediately added. Cell viability was then assessed at 72 h.
Cell viability was then assessed at 72 h.

[2] = human, MALME-3 cells (normal skin), MALME-3 cells (skin (normal))
[3] = human, hFLS-RA (primary synoviocytes)
[4] = keratinocytes (primary skin cells), keratinocytes (primary skin)
[5] = of 176 cell lines tested, fixed dose

SMILES: O=C(NCc1cccnc1)Nc1ccc(COc2ccccc2-c2ccccc2)cc1 [Exemplary Compound A, 1-{4-[(biphenyl-2-yloxy)methyl]phenyl}-3-(pyridin-3-ylmethyl)urea]
- maximal tumor response, regression (HCT116 xenograft tumors; oral 10 mg/kg daily for 21 days, day 11): 32%
- maximal tumor response, regression (HCT116 xenograft tumors; oral 75 mg/kg weekly for three cycles, day 18): 10%
- tumor regression induced by single dose, in the presence of NA (HCT116 xenograft tumors; oral once 75 mg/kg, NA by Alzet pump 470 mg/kg/day for three days): completely prevented
- CC50 at 3 day ([1]; SAEC (primary lung cells), SAEC (primary lung), value printed with (?)): 15000 nM
- CC50 at 3 day [1, 2]: > 5000 nM
- CC50 at 7 day [1, 2]: 0.9 nM
- CC50 at 3 day [1, 3]: > 25000 nM
- CC50 at 7 day [1, 3]: > 25000 nM
- CC50 at 3 day [1, 4]: 2.9 nM
- CC50 at 7 day [1, 4]: < 0.4 nM
- CC50 at 3 day ([1]; mouse, NIH-3T3 cells (fibroblast), NIH-3T3 cells (mouse; fibroblast)): 0.45 nM
- IC50 (HCT116 cells; absence of 10 μM NA): 0.26 nM
- IC50 (HCT116 cells; presence of 10 μM NA): > 10000 nM
- Rescuable by NA? (cell lines; A172, glioma): no
- Rescuable by NA? (cell lines; COLO-205, colorectal): yes
- Rescued by NA? (partial indicates <70% rescue) (cell lines; DEL cells (lymphoma)): Y (partial)
- Rescuable by NA? (cell lines; DMS-114, SCLC): yes
- Rescued by NA? (partial indicates <70% rescue) (cell lines; H4 cells (brain; neuroglioma)): Y (partial)
- Rescuable by NA? (cell lines; HCC827, NSCLC): no
- Rescuable by NA? (cell lines; HCT-116, colorectal): yes
- Rescuable by NA? (cell lines; HT29, colorectal): yes
- Rescuable by NA? (cell lines; HT-1080, fibrosarcoma): no
- Rescued by NA? (partial indicates <70% rescue) (cell lines; Hepa1-6 cells (mouse; hepatoma)): Y (partial)
- Rescued by NA? (partial indicates <70% rescue) (cell lines; MOLP-8 cells (myeloma)): Y (partial)
- Rescued by NA? (partial indicates <70% rescue) (cell lines; MONO-MAC-6 cells (lymphocytic leukemia)): Y (partial)
- Rescuable by NA? (cell lines; MiaPaCa2, pancreatic): no
- Rescuable by NA? (cell lines; NCI-H82, SCLC): yes
- Rescuable by NA? (cell lines; NCI-H460, NSCLC): no
- Rescuable by NA? (cell lines; NCI-H522, NSCLC): no
- Rescued by NA? (partial indicates <70% rescue) (cell lines; NCI-H596 cells (lung (NSCLC))): Y (partial)
- Rescuable by NA? (cell lines; NCI-H929, multiple myeloma): no
- Rescuable by NA? (cell lines; NCI-H1650, NSCLC): no
- Rescuable by NA? (cell lines; NCI-N87, gastric): yes
- Rescued by NA? (partial indicates <70% rescue) (cell lines; NOMO-1 cells (myelogenous leukemia)): Y (partial)
- Rescuable by NA? (cell lines; OCI-Ly19, DLBCL (NHL)): yes
- Rescuable by NA? (cell lines; OPM-2, multiple myeloma): no
- Rescuable by NA? (cell lines; OVCAR-8, ovarian): yes
- Rescued by NA? (partial indicates <70% rescue) (cell lines; PFSK-1 cells (brain; malignant neuroectodermal tumor)): Y (partial)
- Rescued by NA? (partial indicates <70% rescue) (cell lines; RPMI-8226 cells (myeloma)): Y (partial)
- Rescuable by NA? (cell lines; SF-295, glioma): no
- Rescued by NA? (partial indicates <70% rescue) (cell lines; SKM-1 cells (myelogenous leukemia)): Y (partial)
- Rescued by NA? (partial indicates <70% rescue) (cell lines; SR cells (lymphoma)): Y (partial)
- Rescued by NA? (partial indicates <70% rescue) (cell lines; SU-DHL-4 cells (lymphoma)): Y (partial)
- Rescuable by NA? (cell lines; SU-DHL-5, DLBCL (NHL)): no
- Rescued by NA? (partial indicates <70% rescue) (cell lines; SU-DHL-8 cells (lymphoma)): Y (partial)
- Rescued by NA? (partial indicates <70% rescue) (cell lines; SUP-M2 cells (lymphoma)): Y (partial)
- Rescuable by NA? (cell lines; U-87MG, glioma): no
- Fraction not rescued by NA (cell lines; bladder, 1 cell line tested): 0%
- Fraction not rescued by NA (cell lines; brain, 30 cell lines tested): 53%
- Fraction not rescued by NA (cell lines; breast, 7 cell lines tested): 0%
- Fraction not rescued by NA (cell lines; colon, 6 cell lines tested): 0%
- Fraction not rescued by NA (cell lines; fibrosarcoma, 5 cell lines tested): 20%
- Fraction not rescued by NA (cell lines; gastric, 1 cell line tested): 0%
- Fraction not rescued by NA (cell lines; kidney, 5 cell lines tested): 20%
- Fraction not rescued by NA (cell lines; liver, 4 cell lines tested): 25%
- Fraction not rescued by NA (cell lines; lung, NSCLC, 26 cell lines tested): 27%
- Fraction not rescued by NA (cell lines; lung, small cell, 7 cell lines tested): 14%
- Fraction not rescued by NA (cell lines; lymphocytic leukemia, 6 cell lines tested): 17%
- Fraction not rescued by NA (cell lines; lymphoma, 16 cell lines tested): 38%
- Fraction not rescued by NA (cell lines; melanoma, 3 cell lines tested): 0%
- Fraction not rescued by NA (cell lines; myelogenous leukemia, 10 cell lines tested): 10%
- Fraction not rescued by NA (cell lines; myeloma, 9 cell lines tested): 44%
- Rescued by NA? (partial indicates <70% rescue) (cell lines; no.11 cells (brain; glioma, anaplastic)): Y (partial)
- number of cell lines completely rescued by NA (cell lines; [5]): 113
- number of cell lines partially rescued by NA (cell lines; [5]): 16
- number of cell lines that did not rescue with NA (cell lines; [5]): 47
- Fraction not rescued by NA (cell lines; osteosarcoma, 6 cell lines tested): 50%
- Fraction not rescued by NA (cell lines; ovary, 3 cell lines tested): 0%
- Fraction not rescued by NA (cell lines; pancreas, 7 cell lines tested): 14%
- cancer cell lines that failed to be rescued or were only partially rescued by NA (cell lines; panel of 147 cancer cell lines): 38%
- Fraction not rescued by NA (cell lines; prostate, 2 cell lines tested): 0%
